Where no end group is shown, it is not given here.
Legend:
BT-20 - cancer of breast = assay: Cytolytic effect on cancer cells in culture, read microscopically; type: cell-based, human
Procedure: (§1) Biological cytolytic activity of AT and KT at various concentrations ranging from […], 6.25, 12.5 and 25 μg/ml were tested on human cancer cells and SP/2 mouse myeloma cells. The combination AT+KT was 50% by weight of each.

[1] = system: HBL-100 - cancer of breast; assay: as above; type: cell-based, human
Procedure: as §1

HT-29 - cancer of colon = assay: as above; type: cell-based, human
Procedure: as §1

[2] = system: Sk-ov-3 - cancer of ovary; assay: as above; type: cell-based, human
Procedure: as §1

CCL-13 - cancer of mouth = assay: as above; type: cell-based, human
SP/2 - mouse myeloma = assay: as above; type: cell-based
SP/2 cancer cells = assay: Anti cancer activity in vivo: survival of mice injected i.p. with SP/2 cancer cells (ascitic tumors); conditions: Balb/c mice, 2 million SP/2 cells i.p.; 100 μg/mouse for seven consecutive days; PBS control 23 days
Procedure: Anti Cancer Activity of Synthetic AT and KT In Vivo: Adult Balb/c mice were injected intra-peritoneally with 0.5 ml containing 2 million SP/2 cancer cells. Mice were divided into four groups. Starting from day one of post injection the mice were treated with AT and KT individually and the combination of both at 200 μg/ml concentration. Doses of 0.5 ml containing 100 μg/mouse were given for seven consecutive days and the control mice received 0.5 ml PBS.

SP/2 cells = assay: Cytolytic activity of trypsin digested fragments of AT and KT on SP/2 cells; type: cell-based, mouse; conditions: 10^5 SP/2 cells, 20-1.0 μg/ml, read after three days
Procedure: Biological Activity of Fragments on SP/2 cells: The cytolytic activity of the trypsin digested fragments of AT and KT were tested on 10^5 SP/2 cells. Dulbecco Modified Eagle's Medium (DMEM) containing 10% newborn calf serum (NBCS), L-glutamine and antibiotics penicillin and streptomycin was used to grow SP/2 cells. Initially, each fraction was tested on cells grown in 48 well plate at 37° C. in a humid CO2 incubator. The serum free medium containing different concentrations such as 20, 10, 5, 2.5 and 1.0 μg/ml of each fragment was tested. Control cells received PBS to serve as controls.
The tests were read after three days. […] Those fragments were considered as the active domains for cancer cell inhibitor. […] The fragment 6 for AT and the fragment 10 for KT were considered as the active domains for cytolytic activity.

[3] = comparison of syn KT with syn AT

Sequence | % Cytolyic cells BT-20 (BT-20 - cancer of breast; 3.12 μg/ml) [%] | % Cytolyic cells BT-20 (BT-20 - cancer of breast; 6.25 μg/ml) [%] | % Cytolyic cells BT-20 (BT-20 - cancer of breast; 12.5 μg/ml) [%] | % Cytolyic cells BT-20 (BT-20 - cancer of breast; 25 μg/ml) [%] | % Cytolyic cells HBL-100 ([1]; 3.12 μg/ml) [%] | % Cytolyic cells HBL-100 ([1]; 6.25 μg/ml) [%] | % Cytolyic cells HBL-100 ([1]; 12.5 μg/ml) [%] | % Cytolyic cells HBL-100 ([1]; 25 μg/ml) [%] | % Cytolyic cells HT-29 (HT-29 - cancer of colon; 3.12 μg/ml) [%] | % Cytolyic cells HT-29 (HT-29 - cancer of colon; 6.25 μg/ml) [%] | % Cytolyic cells HT-29 (HT-29 - cancer of colon; 12.5 μg/ml) [%] | % Cytolyic cells HT-29 (HT-29 - cancer of colon; 25 μg/ml) [%] | % Cytolyic cells Sk-ov-3 ([2]; 3.12 μg/ml) [%] | % Cytolyic cells Sk-ov-3 ([2]; 6.25 μg/ml) [%] | % Cytolyic cells Sk-ov-3 ([2]; 12.5 μg/ml) [%] | % Cytolyic cells Sk-ov-3 ([2]; 25 μg/ml) [%] | % Cytolyic cells CCL-13 (CCL-13 - cancer of mouth; 3.12 μg/ml) [%] | % Cytolyic cells CCL-13 (CCL-13 - cancer of mouth; 6.25 μg/ml) [%] | % Cytolyic cells CCL-13 (CCL-13 - cancer of mouth; 12.5 μg/ml) [%] | % Cytolyic cells CCL-13 (CCL-13 - cancer of mouth; 25 μg/ml) [%] | other results
FCRFLLCPSR (cysteine pairing not given here) [Atroporin] | 0 | 0 | 50 | 100 | 0 | 0 | 50 | 100 | 0 | 0 | 100 | 100 | 0 | 100 | 100 | 100 | 0 | 50 | 100 | 100 | Cytolytic effect compared in similar concentration, Sk-ov-3 ([2]; comparison of syn AT with the other peptide): more cytolytic; % Cytolyic cells SP/2 (SP/2 - mouse myeloma; 3.12 μg/ml): 0%; % Cytolyic cells SP/2 (SP/2 - mouse myeloma; 6.25 μg/ml): 0%; % Cytolyic cells SP/2 (SP/2 - mouse myeloma; 12.5 μg/ml): 50%; % Cytolyic cells SP/2 (SP/2 - mouse myeloma; 25 μg/ml): 100%; Survival (incubation period for development of ascitic tumors to cause death) (SP/2 cancer cells): 30 days
FCRFLLCPSRSLL (cysteine pairing not given here) [fragment 6 for AT] |  |  |  |  |  |  |  |  |  |  |  |  |  |  |  |  |  |  |  |  | Cytolytic activity of trypsin digested fragments, ranking among fragments (SP/2 cells): most active
PPGNQPDADS [Kaotree] | 0 | 0 | 75 | 100 | 0 | 50 | 100 | 100 | 0 | 0 | 100 | 100 | 0 | 50 | 100 | 100 | 0 | 0 | 100 | 100 | Cytolytic effect compared in similar concentration, BT-20 (BT-20 - cancer of breast; [3]): more cytolytic than AT; Cytolytic effect compared in similar concentration, HBL-100 [1, 3]: more cytolytic than AT; % Cytolyic cells SP/2 (SP/2 - mouse myeloma; 3.12 μg/ml): 0%; % Cytolyic cells SP/2 (SP/2 - mouse myeloma; 6.25 μg/ml): 50%; % Cytolyic cells SP/2 (SP/2 - mouse myeloma; 12.5 μg/ml): 100%; % Cytolyic cells SP/2 (SP/2 - mouse myeloma; 25 μg/ml): 100%; Survival (incubation period for development of ascitic tumors to cause death) (SP/2 cancer cells): 37 days
PPGNQPDADSN [fragment 10 for KT] |  |  |  |  |  |  |  |  |  |  |  |  |  |  |  |  |  |  |  |  | Cytolytic activity of trypsin digested fragments, ranking among fragments (SP/2 cells): most active

Source: patent US7589062B2, “Two synthetic peptides for treatment and prevention of cancers” (priority 2002, dated 2009)
